The results in this text go back to patent US11970475B1, “4-(1-(2-Hydroxypropyl)-4,5-diphenyl-1H-imidazol-2-yl)pyridin-3-ol as an antimicrobial compound” (KING FAISAL UNIVERSITY, priority 2023, dated 2024).

SMILES strings stand for the structures.

Data set [1] deals with Ps. aeruginosa. Briefly: Anti-microbial screening, agar dilution, Ps. aeruginosa. In kind it is cell-based, Pseudomonas aeruginosa. The conditions noted are these: after 10, 20, 40 and 60 minutes at all dilutions 1:100, 1:200, 1:400, 1:800. How it is done: (§1) The antibacterial properties of the present compound were studied by the method of agar dilution. Test solutions of the compound were prepared in a concentration of 1% using dimethylformamide as a solvent then they are diluted in physiological solution to obtain the final experimental dilutions 1:100, 1:200, 1:400, and 1:800. The effect of these substances were compared with furacillin in a controllable study. The testing microbes used were gram positive bacteria St. Aereus, gram negative bacteria E. Coli, Ps. aeruginosa and Candida albicans fungi were taken. The experiments used for this survey were meat-pentonlu agar (EPA) for cultivation of bacteria and Saburo environment for fungi. Each experiment used 1 ml of test solution on each plate 500 min. Add 2 drops of emulsified with microbes feel. All experimental samples were taken from the agar after 10, 20, 40, and 60 minutes in the environment on the basis of Patrk planted. Bacteria were cultivated at a temperature of 37° C. for 1 day and the mushroom was kept in a thermostat for […] at a temperature of 28° C. Then results were checked.
A general note: In agar dilution, organisms are placed on agar that contains the substance at set levels.

Data set [2] deals with St. Aereus. Briefly: Anti-microbial screening, agar dilution, St. Aereus. In kind it is cell-based, Staphylococcus aureus. To be noted: after 10, 20, 40 and 60 minutes at all dilutions 1:100, 1:200, 1:400, 1:800. The protocol: as §1
For data set [3], the system named is Candida albicans. Briefly: Anti-microbial screening, agar dilution, Candida albicans. In kind it is cell-based. The conditions noted are these: after 10, 20, 40 and 60 minutes at all dilutions 1:100, 1:200, 1:400, 1:800. The protocol:
as §1

Data set [4] has as its system E. Coli. Briefly: Anti-microbial screening, agar dilution, E. Coli. In kind it is cell-based, Escherichia coli. To be noted: after 10, 20, 40 and 60 minutes at all dilutions 1:100, 1:200, 1:400, 1:800. How it is done:
as §1

For `CC(O)Cn1c(-c2ccncc2O)nc(-c2ccccc2)c1-c1ccccc1` (centres unmarked) [4-(1-(2-Hydroxypropyl)-4,5-diphenyl-1H-imidazol-2-yl)pyridin-3-ol], the melting point lay in the range of 117 to 118 °C. In data set [1], the “inhibition activity (in words)” value is reported as “highest inhibition activity”. For the same compound, the “inhibition activity (in words)” value in data set [2] is recorded as “highest inhibition activity”. In data set [3], the “inhibition activity (in words)” value is on record as “highest inhibition activity”. Further, in data set [4], the “inhibition activity (in words)” value was “highest inhibition activity”.

By melting point is commonly meant the temperature of the solid-liquid transition.
